The values below are quoted from earlier work in the PKSmart pharmacokinetics tables (Seal et al. 2025).

Where a SMILES comes first, the peptide text is derived from it. Bridges are numbered along the chain shown (N, C = ends).

The first data set is described as follows: not given per row; by the article one of three: Lombardo et al. 2013, J Clin Pharmacol 53:178, doi 10.1177/0091270012440282; 'New Drugs at FDA', novel drug approvals for 2021 and 2022 (the article's reference 43); Yap, Li, Chen 2006, J Mol Graph Model 24:383, doi 10.1016. The following applies: human; in vivo.
Turning to `NCCCCC(NC(=O)C1CCCN1C(=O)C1CSSCC(NC(=O)CNC(=O)CNC(=O)CN)C(=O)NC(Cc2ccc(O)cc2)C(=O)NC(Cc2ccccc2)C(=O)NC(CCC(N)=O)C(=O)NC(CC(N)=O)C(=O)N1)C(=O)NCC(N)=O` (stereo unspecified) (H-GGGCYFQNCPKG-NH2; disulfide 4-9; configuration not given here), the volume of distribution (Vd) – broadly, the apparent volume that relates the amount in the body to the concentration in plasma or blood – is 0.11 L/kg; the clearance – broadly, the volume of plasma or blood freed of the substance per unit of time – is 7.61 mL/min/kg; the half-life (in general, how long it takes for the measured level to halve) was 0.9 h.

On to `Cc1cn([C@@H]2C=C[C@H](CO)O2)c(=O)[nH]c1=O`, for which the clearance was 8.24 mL/min/kg.

For the molecule `CN1CC[C@@]23c4c5ccc(O)c4OC2C(=O)CC[C@@H]3[C@@H]1C5` (stereo partly specified), the clearance was 19.2 mL/min/kg.

Take `CN1c2c(oc(=O)n(-c3ccccn3)c2=O)-c2ccccc2S1(=O)=O`: the clearance was 0.05 mL/min/kg.

`CCNC[C@H](O)c1ccc(O)cc1`: the clearance was 13.6 mL/min/kg.

Take `CN1CCN(/C=C2/N=C3CN=C(c4ccccc4Cl)c4cc([N+](=O)[O-])ccc4N3C2=O)CC1`: the clearance was 5.09 mL/min/kg.

Consider `C[C@@H](O)C1C(=O)N2C(C(=O)O)=C(S[C@H]3CNC(C(=O)Nc4cccc(C(=O)O)c4)C3)[C@H](C)[C@@H]12` (stereo partly specified), for which the clearance was 0.4 mL/min/kg.

On to `CO[C@]1(NC(O)=c2sc(=C(C(N)=O)C(=O)O)s2)C(=O)N2C(C(=O)O)=C(CSc3nnnn3C)CS[C@@H]21`, for which the clearance is 0.63 mL/min/kg.

`NC(=O)CN1CCCC1=O`: the clearance was 1.3 mL/min/kg.

For the molecule `CCC1(CCC(C)C)C(=O)NC(=O)NC1=O`, the clearance is 0.35 mL/min/kg.

In the case of `C[C@@H](c1cc2ccccc2s1)N(O)C(N)=O`, the clearance was 7.14 mL/min/kg.

With `CN[C@H]1CCc2[nH]c3ccc(C(N)=O)cc3c2C1`, the clearance was 3.09 mL/min/kg.

For `CC(C)[C@@H](C)[C@@]1(C)CC[C@]2(C)[C@H]3CC[C@@H]4[C@@]5(COC[C@@]4(C)[C@@H](OC[C@](C)(N)C(C)(C)C)[C@H](n4ncnc4-c4ccncc4)C5)C3=CC[C@@]2(C)C1C(=O)O` (stereo partly specified), the Vd is 10 L/kg and the half-life was 20 h.

`CCCCCc1cc(O)c2c(c1)OC(C)(C)[C@H]1CCC(C)=C[C@H]21`: the clearance was 3.33 mL/min/kg.

With `CC(CO)(CO)NCc1cc2c3ccccc3ccc2c2ccccc12`, the clearance is 8.44 mL/min/kg.

In the case of `CC(=O)O[C@H](CC(=O)[O-])C[N+](C)(C)C`, the clearance is 1.45 mL/min/kg.

With `CN(C)CCC(c1ccccc1)c1ccccn1` (stereo unspecified), the clearance is 2.14 mL/min/kg.

Take `CC[C@H](OC(C)=O)C(C[C@@H](C)N(C)C)(c1ccccc1)c1ccccc1`: the clearance is 4.09 mL/min/kg.

Take `CCN(CC)CC#CCOC(=O)[C@](O)(c1ccccc1)C1CCCCC1`: the clearance was 8.1 mL/min/kg.

With `CCN1C[C@@H](CCN2CCOCC2)C(c2ccccc2)(c2ccccc2)C1=O`, the clearance was 5.75 mL/min/kg.

Regarding `C[C@@H](O)C1C(=O)N2C(C(=O)O)=C(S[C@@H]3CNC(C(=O)N(C)C)C3)[C@H](C)[C@@H]12` (stereo partly specified), the clearance is 3.49 mL/min/kg.

As to `CN(C[C@H](O)CO)C(=O)c1c(I)c(NC(=O)C(CO)CO)c(I)c(C(=O)N(C)C[C@H](O)CO)c1I`, the clearance is 1.33 mL/min/kg.

As to `C=CCc1ccccc1OC[C@H](O)CNC(C)C`, the clearance was 6.47 mL/min/kg.

On to `COC[C@H]1CN=C(c2ccccc2Cl)c2cc(Br)ccc2N1C`, for which the clearance is 11.1 mL/min/kg.

As to `COc1cccc2c1C(=O)c1c(O)c3c(c(O)c1C2=O)C[C@](O)(C(=O)CO)C[C@@H]3O[C@@H]1C[C@H](N)[C@@H](O)[C@H](C)O1`, the clearance is 16.5 mL/min/kg.

As for `CON=C(C(=O)NC1C(=O)N2C(C(=O)[O-])C(=C[N+]34CCC(C(N)=O)(CC3)CC4)CSC12)c1nsc(N)n1` (stereo unspecified), the Vd is 0.27 L/kg and the clearance was 1.7 mL/min/kg.

With `O=C(CO)NCCCOc1cccc(CN2CCCCC2)c1`, the clearance was 6.73 mL/min/kg.

On to `O=[P@@]1(N(CCCl)CCCl)NCCCO1`, for which the clearance is 2.54 mL/min/kg.

`C=C1C[C@@H]2C(CC[C@]3(C)C(=O)CC[C@@H]23)[C@]2(C)C=CC(=O)C=C12` (stereo partly specified): the clearance was 145 mL/min/kg.

With `CC(C)(C)NC[C@@H](O)COc1cccc2c1C[C@H](O)[C@@H](O)C2`, the clearance was 2.94 mL/min/kg.

As to `CN1CCN(c2c(F)cc3c(=O)c(C(=O)O)cn4c3c2SCC4)CC1`, the clearance is 0.57 mL/min/kg.

For the molecule `CC1(C)S[C@H]2C(NC(=O)C(NC(=O)N3CCN(S(C)(=O)=O)C3=O)c3ccccc3)C(=O)N2C1C(=O)O` (stereo partly specified), the clearance is 2.71 mL/min/kg.

Consider `CC(C(=O)O)c1ccc(-c2ccccc2)c(F)c1` (stereo unspecified), for which the clearance is 0.35 mL/min/kg.

As for `CC(C)N(CC[C@@](C(N)=O)(c1ccccc1)c1ccccn1)C(C)C`, the clearance is 2.7 mL/min/kg.

As to `CC(C)NC[C@@H](O)COc1ccc(CCOCC2CC2)cc1`, the clearance is 4.7 mL/min/kg.

With `CC/C(=C(/c1ccccc1)c1ccc(OCCN(C)C)cc1)c1ccccc1`, the clearance was 1.4 mL/min/kg.

`O=C(Cn1ccnc1[N+](=O)[O-])NCCO`: the clearance was 1.73 mL/min/kg.

With `Cc1cc(O)c(C(=O)NC(C(=O)NC2C(=O)N3C(C(=O)O)=C(CSc4nnnn4C)CS[C@H]23)c2ccc(O)cc2)cn1` (stereo partly specified), the clearance is 0.28 mL/min/kg.

`COc1ccc2c3c1OC1C(=O)CC[C@@H]4[C@H](C2)N(C)CC[C@@]314` (stereo partly specified): the clearance was 8.82 mL/min/kg.

For `COc1ccc(OC)c(Cc2cnc3nc(N)nc(N)c3c2C)c1`, the clearance was 2.21 mL/min/kg.

As for `C[C@]12CC[C@@H]3C4=C(CC[C@H]3[C@@H]1CC[C@@H]2O)CC(=O)CC4`, the clearance was 26.7 mL/min/kg.

For `CCN1CCCC1CNC(=O)c1c(OC)ccc(Br)c1OC` (stereo unspecified), the clearance is 1.7 mL/min/kg.

Turning to `Cc1cc2c(s1)Nc1ccccc1N=C2N1CCN(C)CC1`, the clearance was 5.81 mL/min/kg and the half-life is 43.5 h.

As to `CCOC(=O)NNc1ccc(N(CC)C[C@@H](C)O)nn1`, the clearance is 3.79 mL/min/kg.

For `CC1(C)C(=CC=C2CCCC(C=CC3=[N+](CCCCS(=O)(=O)O)c4ccc(S(=O)(=O)[O-])cc4C3(C)C)=C2Oc2ccc(CC(NC(=O)c3ccc(NCc4cnc5nc(N)[nH]c(=O)c5n4)cc3)C(=O)O)cc2)N(CCCCS(=O)(=O)O)c2ccc(S(=O)(=O)O)cc21` (stereo unspecified), the Vd was 0.29 L/kg and the half-life is 0.44 h.

As to `O=c1[nH]c2ccccc2n1C1CCN(CCCC(c2ccc(F)cc2)c2ccc(F)cc2)CC1`, the clearance is 4.1 mL/min/kg.

As for `C[C@@H]1COc2c(N3CCN(C)CC3)c(F)c(C(=O)O)c3c(=O)ccn1c23`, the clearance was 3.5 mL/min/kg.

`CCOCCn1c(N2CCCN(C)CC2)nc2ccccc21`: the clearance is 12.5 mL/min/kg.

As for `C[C@H](NCCC(c1ccccc1)c1ccccc1)c1ccccc1`, the clearance is 20 mL/min/kg.

For the molecule `CCCCN(CCCC)C[C@H](O)c1cc(Cl)cc2c1-c1ccc(Cl)cc1/C2=C/c1ccc(Cl)cc1`, the clearance was 3.57 mL/min/kg.

`C[C@H](O)C1C(=O)N2C(C(=O)[O-])=C(SC3Cn4cnc[n+]4C3)[C@@H](C)[C@@H]12` (stereo partly specified): the clearance is 2.77 mL/min/kg.

For the molecule `CCCN(CC)C(CC)C(=O)Nc1c(C)cccc1C` (stereo unspecified), the clearance was 15.9 mL/min/kg.

`Cc1nc(C)c2c(n1)N(Cc1ccc(-c3ccccc3-c3nnn[nH]3)cc1)C(=O)CC2`: the clearance was 7.17 mL/min/kg.

As for `CC(C)NC[C@@H](O)COc1cccc2ccccc12`, the clearance is 13.7 mL/min/kg.

In the case of `CCOCn1c(Cc2ccccc2)c(C(C)C)c(=O)[nH]c1=O`, the clearance is 28.6 mL/min/kg.

Take `C=c1c(N)c(O)c2c(c1O)N1C[C@@H]3N[C@@H]3[C@@]1(OC)C=2COC(N)=O`: the clearance is 8.23 mL/min/kg.

For the molecule `CO[C@]1(NC(=O)C(C(=O)O)c2ccc(O)cc2)C(=O)N2C(C(=O)O)=C(CSc3nnnn3C)CO[C@@H]21` (stereo partly specified), the clearance is 1.32 mL/min/kg.

On to `CC[C@H](CO)NCCN[C@@H](CC)CO`, for which the clearance was 8.05 mL/min/kg.

Still in this data set, the particulars now being: human; plasma.
As to `CC(C)[C@@H](C)[C@@]1(C)CC[C@]2(C)[C@H]3CC[C@@H]4[C@@]5(COC[C@@]4(C)[C@@H](OC[C@](C)(N)C(C)(C)C)[C@H](n4ncnc4-c4ccncc4)C5)C3=CC[C@@]2(C)C1C(=O)O` (stereo partly specified), the fraction unbound – broadly, the share of the substance not bound to proteins or other matrix – is 0.01.

For `Cc1cc2c(s1)Nc1ccccc1N=C2N1CCN(C)CC1`, the fraction unbound is 0.07.
